{
  "source": "patent US5043268A",
  "about": "“Substrates and inhibitors for prenyl cysteine methyltransferase enzymes” (The Trustees of Princeton University, priority 1990, dated 1991)",
  "biological_target": "prenyl cysteine methyltransferase (Bos taurus, UniProt A0AAA9SD88)",
  "sequence (A0AAA9SD88 1-284)": "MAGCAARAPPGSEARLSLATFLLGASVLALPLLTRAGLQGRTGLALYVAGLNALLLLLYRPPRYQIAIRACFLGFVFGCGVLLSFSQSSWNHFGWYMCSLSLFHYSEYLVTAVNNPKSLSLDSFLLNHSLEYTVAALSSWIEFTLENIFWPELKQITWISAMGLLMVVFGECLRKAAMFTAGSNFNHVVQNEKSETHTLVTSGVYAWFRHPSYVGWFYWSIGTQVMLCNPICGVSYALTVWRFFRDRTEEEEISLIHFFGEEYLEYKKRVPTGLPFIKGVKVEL",
  "assay": "Prenyl cysteine methyltransferase assay (3H-methyl transfer from S-adenosylmethionine to AFC, vapor-phase equilibrium)",
  "assay_type": "biochemical",
  "conditions": "5.0 μM (3H-methyl)-S-adenosylmethionine, 83,000×g pellet of bovine brain, 37° C., pH 7.9",
  "protocol": "To a putative source of prenyl cysteine methyl transferase enzyme is added 50 μM of N-acetyl-S-farnesyl cysteine (\"AFC\") and 5.0 μM (^3 H-methyl)-S-adenosylmethionine (specific activity 16,000 cpm/pmol) in 100 mM tris-HCl, 1 mM EDTA, 1 mM DTT, pH 7.9 in a final volume of 150 μL. After heating the mixture at 37° C. for 5 to 25 minutes, 25 μL of the mixture is removed and added to 250 μL of heptane. The mixture is immediately vortexed to extract N-acetyl-S-farnesyl cysteine methyl ester into the organic phase. The mixture then is centrifuged for 30 seconds, and placed in a dry ice/acetone bath to quench the reaction. The heptane layer (200 μL) is removed and added to a 1.5 mL capless Eppendorf microcentrifuge tube. The heptane is evaporated in a Speedvac, and 25 μL of 1M sodium hydroxide is added to the remaining residue. The ^3 H-methanol produced from the hydrolysis of the ^3 H-methylesters is assayed by the vapor-phase equilibrium procedure as described in Stock, J. B., et al. (1984) Methods Enzymology, 106, 310-321 which is incorporated herein by reference.\nA sample of 0.003 grams of 83,000×g. pellet from homogenized bovine brain after previous removal of the 14,000×g. pellet was subjected to the foregoing assay.",
  "data": [
    {"smiles": "CC(=O)N[C@@H](CSC/C=C(\\C)CC/C=C(\\C)CCC=C(C)C)C(=O)O", "note": "[AFC, N-Acetyl, S-trans,trans-farnesyl-L-cysteine]", "values": [
      {"measurement": "cpm (w/50 μM AFC)", "setting": "5 min", "result": 199.5, "unit": "cpm"},
      {"measurement": "cpm (w/50 μM AFC)", "setting": "10 min", "result": 343.5, "unit": "cpm"},
      {"measurement": "cpm (w/50 μM AFC)", "setting": "15 min", "result": 393.5, "unit": "cpm"},
      {"measurement": "cpm (w/50 μM AFC)", "setting": "20 min", "result": 543.0, "unit": "cpm"},
      {"measurement": "cpm (w/50 μM AFC)", "setting": "25 min", "result": 616.0, "unit": "cpm"}
    ]}
  ]
}
